Reference: patent publication US9669003B2, “Use of flavone and flavanone derivatives in preparation of sedative and hypnotic drugs” (priority 2012, dated 2017)
Marks after values point to notes of the source that are not given here.

What was measured:
Assay type in all cases: in vivo
Kunming mice [1] = assay: Influence on autonomic activity of normal mice (ZIL-2 mice autonomic activity meter, counts within 10 min); details: intragastric, x ± s; for Times of activities in 1 h after drug administration/10 min: 1 h after administration; for Times of activities in 2 h after drug administration/10 min: 2 h after administration; for Times of activities in 24 h after drug administration/10 min: 24 h after administration
How it was run: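 Activity counts during a 10-min window were taken at 1, 2 and 24 h after dosing in groups of 10 mixed-sex Kunming mice. Compounds were given in 0.5% CMC-Na at 25, 50 or 100 mg/kg. Statistics used Levene's homogeneity test, ANOVA and Dunnett's multiple comparisons.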

Kunming mice [2] = assay: Influence on hypnosis effect with pentobarbital sodium doses below the threshold (25 mg/kg i.p.); details: pentobarbital sodium 25 mg/kg i.p. 60 min later, sleep observed in 30 min, n = 10
How it was run: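 Percentage of mice sleeping within 30 min after subthreshold pentobarbital sodium (25 mg/kg i.p.), defined by loss of righting reflex over 1 min, analysed by χ2. Compound in 0.5% CMC-Na given intragastrically at 25/50/100 mg/kg 60 min before; groups of 10 Kunming mice, both sexes.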

Kunming mice [3] = assay: Influence on hypnosis effect with pentobarbital sodium doses at the threshold (50 mg/kg i.p.); details: pentobarbital sodium 50 mg/kg i.p. 60 min later, x ± s, n = 10
How it was run: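 Pentobarbital sodium (0.3%, 50 mg/kg i.p.) injected 60 min after a single intragastric dose (25, 50, 100 mg/kg, 0.5% CMC-Na vehicle) in Kunming mice, 10 per group, sexes balanced. Onset and length of sleep (righting reflex lost over 1 min) analysed by ANOVA; sleeping incidence by χ2 test.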

[4] = test drug 25 mg/kg intragastric single dose
[5] = test drug 50 mg/kg intragastric single dose
[6] = test drug 100 mg/kg intragastric single dose
[7] = 25 mg/kg intragastric single dose
[8] = 50 mg/kg intragastric single dose
[9] = 100 mg/kg intragastric single dose

SMILES	Times of activities in 1 h after drug administration/10 min (Kunming mice [1]; 25 mg/kg, n = 10)	Times of activities in 2 h after drug administration/10 min (Kunming mice [1]; 25 mg/kg, n = 10)	Times of activities in 24 h after drug administration/10 min (Kunming mice [1]; 25 mg/kg, n = 10)	Times of activities in 1 h after drug administration/10 min (Kunming mice [1]; 50 mg/kg, n = 10)	Times of activities in 2 h after drug administration/10 min (Kunming mice [1]; 50 mg/kg, n = 10)	Times of activities in 24 h after drug administration/10 min (Kunming mice [1]; 50 mg/kg, n = 10)	Times of activities in 1 h after drug administration/10 min (Kunming mice [1]; 100 mg/kg, n = 10)	Times of activities in 2 h after drug administration/10 min (Kunming mice [1]; 100 mg/kg, n = 10)	Number of sleeping animals (Kunming mice [2]; [4])	rate of sleeping (%) (Kunming mice [2]; [4])	Number of sleeping animals (Kunming mice [2]; [5])	rate of sleeping (%) (Kunming mice [2]; [5])	Number of sleeping animals (Kunming mice [2]; [6])	rate of sleeping (%) (Kunming mice [2]; [6])	duration of sleep (Kunming mice [3]; [7]) [min]	time to sleep (Kunming mice [3]; [7]) [min]	duration of sleep (Kunming mice [3]; [8]) [min]	time to sleep (Kunming mice [3]; [8]) [min]	duration of sleep (Kunming mice [3]; [9]) [min]	time to sleep (Kunming mice [3]; [9]) [min]	also measured
CCc1cccc2c1C(=O)CC(c1cc(F)cc(C(=O)O)c1)O2 (stereo not drawn) [Example 53]	303.8 ± 67.4 /10 min	283.8 ± 73.8 /10 min	314.9 ± 68.9 /10 min	249.3 ± 61.0 /10 min	236.7 ± 60.8 /10 min	297.7 ± 87.6 /10 min	201.8 ± 36.6 /10 min	194.8 ± 42.5 /10 min	4	40* %	6	60** %	7	70** %	39.56 ± 20.45	4.82 ± 1.61	47.28 ± 16.84	4.31 ± 1.84	52.86 ± 19.25	3.61 ± 1.48	Times of activities in 24 h after drug administration/10 min (Kunming mice [1]; 100 mg/kg, n = 10): 330.9 ± 73.6 /10 min
COc1cc(OC)c2c(=O)cc(-c3ccc(OC)c(OC)c3)oc2c1 [Example 36]									3	30%	4	40* %	6	60** %	38.32 ± 20.03	4.21 ± 1.65	61.41 ± 26.54	3.77 ± 1.12	72.03 ± 21.92	3.09 ± 1.25	Times of activities in 1 h after drug administration/10 min (Kunming mice [1]; 25 mg/kg, n = 10, 25 mg/kg): 321.4 ± 53.4 /10 min; Times of activities in 2 h after drug administration/10 min (Kunming mice [1]; 25 mg/kg, n = 10, 25 mg/kg): 310.8 ± 51.5 /10 min; Times of activities in 24 h after drug administration/10 min (Kunming mice [1]; 25 mg/kg, n = 10, 25 mg/kg): 300.2 ± 79.6 /10 min; Times of activities in 1 h after drug administration/10 min (Kunming mice [1]; 50 mg/kg, n = 10, 50 mg/kg): 289.9 ± 44.8 /10 min; Times of activities in 2 h after drug administration/10 min (Kunming mice [1]; 50 mg/kg, n = 10, 50 mg/kg): 258.2 ± 43.6 /10 min; Times of activities in 24 h after drug administration/10 min (Kunming mice [1]; 50 mg/kg, n = 10, 50 mg/kg): 311.5 ± 98.3 /10 min; Times of activities in 1 h after drug administration/10 min (Kunming mice [1]; 100 mg/kg, n = 10, 100 mg/kg): 288.3 ± 50.4 /10 min; Times of activities in 2 h after drug administration/10 min (Kunming mice [1]; 100 mg/kg, n = 10, 100 mg/kg): 235.8 ± 49.8 /10 min; Times of activities in 24 h after drug administration/10 min (Kunming mice [1]; 100 mg/kg, n = 10, 100 mg/kg): 322.6 ± 76.8 /10 min
COc1ccc(C2CC(=O)c3c(O)c(OC)c(OC)c(OC)c3O2)cc1 (stereo not drawn) [Example 42, 5-hydroxyl-6,7,8,4′-tetramethoxyl-flavanone]	231.2 ± 47.3 /10 min	233.2 ± 35.1 /10 min	313.5 ± 68.2 /10 min	154.5 ± 43.2 /10 min	145.3 ± 41.3 /10 min	310.3 ± 62.5 /10 min	108.5 ± 48.5 /10 min	104.3 ± 42.5 /10 min	5	50** %	8	80*** %	9	90*** %	58.90 ± 15.38	4.42 ± 1.65	69.37 ± 20.24	3.30 ± 1.32	78.53 ± 19.87	2.26 ± 1.28	Times of activities in 24 h after drug administration/10 min (Kunming mice [1]; 100 mg/kg, n = 10): 302.6 ± 69.3 /10 min
